Experimental data published in ChEMBL document CHEMBL1201862, “PubChem BioAssay data set” (2004).
Calls of active or inactive are those of the source.

What was measured:
[1] = target: G-protein coupled receptor 183 (Homo sapiens, UniProt P32249); assay: SAR confirmation of small molecule antagonists of the EBI2 receptor via a luminescent beta-arrestin assa.; type: functional
[2] = L6 myocyte viability loss – cell-based, plate reader, cherry-pick, cytotoxicity control, dose response (AID 651896); type: functional
[3] = antileishmanial activity on axenic amastigotes – plate reader, cherry pick, dose response (AID 651891); type: functional, cell-based; settings: Leishmania donovani
[4] = intracellular Trypanosoma cruzi inhibitors in host cells – cell-based, plate reader, cherry-pick samples, set 3, dose response (AID 651818); type: functional;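 further: compounds incubated with infected cells for about four days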
[5] = African trypanosome bloodstream form growth inhibition – STIB900 strain, plate reader, cherry pick, dose response (AID 651893); type: functional, cell-based, Trypanosoma brucei rhodesiense; settings: Trypanosoma brucei
[6] = antimalarial activity against erythrocytic parasites – NF54 strain, plate reader, dry powder, dose response (AID 651889); type: functional, cell-based
[7] = host muscle cell viability loss – plate reader, dry powder, counter-screen for T. cruzi inhibitor project, dose response (AID 651895); type: functional, cell-based
[8] = T. cruzi growth inhibition in host cells, dose response, cell-based, plate reader, dry powder, set 2 (AID 652275); type: functional
[9] = Trypanosoma cruzi replication inhibitors in host cells – cell-based, plate reader, dry powder samples, dose response (AID 651845); type: functional
[10] = anti-trypanosomal activity in BESM host cells – imaging, CA-I/72 strain, bovine embryo skeletal muscle, dry powder, dose response (AID 651885); type: functional, cell-based
[11] = antileishmanial activity on axenic amastigotes – plate reader, dry powder, dose response (AID 651892); type: functional, cell-based
[12] = intracellular Chagas parasite inhibition in myoblasts – Tulahuen strain, L-6 host cells, dry powder, dose response (AID 651890); type: functional, cell-based
[13] = African trypanosome bloodstream form growth inhibition – STIB900 strain, plate reader, dry powder, dose response (AID 651894); type: functional, cell-based
[14] = Orthopox viral replication plaque formation Measured in Cell-Based and Microorganism Combination System Using Imaging - 2142-05_Inhibitor_Dose_DryPowder_Activity.; type: functional
[15] = target: NAD-dependent protein deacylase sirtuin-5, mitochondrial (Homo sapiens, UniProt Q9NXA8); assay: sirtuin-5 deacylation blockers, concentration series – biochemical, fluorescence imaging, cherry-pick, set 5, dose response (AID 720591);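 further: desuccinylation of succinyl peptide AMC substrate read as fluorescence after trypsin release; potency of inhibitors that lower fluorescence and may act on trypsin instead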
Chain of NAD-dependent protein deacylase sirtuin-5, mitochondrial (Q9NXA8 whole entry): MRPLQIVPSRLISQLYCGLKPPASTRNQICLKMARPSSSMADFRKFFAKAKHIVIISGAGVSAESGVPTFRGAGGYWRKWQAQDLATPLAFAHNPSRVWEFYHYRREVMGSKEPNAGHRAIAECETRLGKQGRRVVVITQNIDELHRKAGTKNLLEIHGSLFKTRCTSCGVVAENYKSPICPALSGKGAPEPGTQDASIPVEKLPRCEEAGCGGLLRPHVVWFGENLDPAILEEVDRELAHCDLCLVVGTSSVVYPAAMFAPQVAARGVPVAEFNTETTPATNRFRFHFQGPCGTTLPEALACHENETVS

[16] = CellTiter-Glo luminescence survival assay, SW480 colon tumor line, concentration-response curve, half-maximal inhibitory concentration (AID 1117338); type: functional
[17] = RKO cell viability reduction, dose response, CellTiter-Glo luminescence (AID 1117322); type: functional
[18] = cytotoxicity toward HCT116 cells – cell-based, CellTiter-Glo luminescence, IC50, dose response (AID 1117332); type: functional; settings: HCT-116
[19] = SNU-C1 cell viability reduction, dose response, CellTiter-Glo luminescence (AID 1117323); type: functional, cell-based
[20] = cytotoxicity toward Colo320 cells – cell-based, CellTiter-Glo luminescence, IC50, dose response (AID 1117334); type: functional; settings: COLO 320
[21] = cytotoxicity toward HT-29 cells – cell-based, CellTiter-Glo luminescence, IC50, dose response (AID 1117330); type: functional
[22] = Reduced DLD-1 viability, concentration-response, CellTiter-Glo luminescence (AID 1117352); type: functional
[23] = HCT116 cell viability decrease, GSK3B pretreatment – CellTiter-Glo, IC50, dose response (AID 1117339); type: functional; settings: HCT-116
[24] = viability loss in A549 lung cells – cell-based, 24 h, CellTiter-Glo luminescence, cherry-picks, cytotoxicity control, dose response (AID 1053115); type: functional; settings: A549, 24 h

Chain of G-protein coupled receptor 183 (P32249 whole entry): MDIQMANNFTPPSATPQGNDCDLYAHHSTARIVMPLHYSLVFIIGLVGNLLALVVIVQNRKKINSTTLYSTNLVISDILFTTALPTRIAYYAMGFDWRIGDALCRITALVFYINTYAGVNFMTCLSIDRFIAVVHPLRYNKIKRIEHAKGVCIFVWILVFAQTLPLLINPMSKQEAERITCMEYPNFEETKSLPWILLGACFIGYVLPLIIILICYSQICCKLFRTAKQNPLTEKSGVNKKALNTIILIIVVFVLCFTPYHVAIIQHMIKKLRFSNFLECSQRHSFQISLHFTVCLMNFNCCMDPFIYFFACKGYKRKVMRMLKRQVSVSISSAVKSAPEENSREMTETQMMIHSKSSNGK

Cc1ccccc1/C=C/C(=O)N1CCN(S(=O)(=O)c2ccc(Br)cc2)CC1
active: IC50 [1] 0.187 µM

C[C@@H]1CN([C@H](C)CO)C(=O)c2cccc(NC(=O)c3ccncc3)c2O[C@@H]1CN(C)Cc1ccc(Oc2ccccc2)cc1
inactive: IC50 [2] 44.2 µM | IC50 [3] > 100 µM | IC50 [5] 2.63 µM | IC50 [6] 2.23 µM | IC50 [7] 64.6 µM | IC50 [11] > 100 µM | IC50 [13] 1.31 µM
active: AC50 [4] 1.05 µM | AC50 [8] 0.309 µM | AC50 [9] 0.286 µM | IC50 [10] 2 µM | IC50 [12] 1.16 µM

CO[C@H]1CN(C)C(=O)c2ccc(NC(=O)c3ccc(F)cc3)cc2OC[C@H](C)N(C(=O)c2ccc(F)cc2)C[C@@H]1C
active: AC50 [14] 5.72 µM

O=C(NC(c1ccc(Cl)cc1)c1cnccn1)C1CCN(Cc2ccc(Cl)cc2)CC1 (centres undefined)
inactive: AC50 [15] > 30 µM

CCCCCCCC[N+](C)(C)CCCCCCCC
inactive: IC50 [18] 6.24 µM
active: IC50 [16] 3.46 µM | IC50 [17] 2.18 µM | IC50 [19] 1.44 µM | IC50 [20] 4.66 µM | IC50 [21] 4 µM | IC50 [22] 3.22 µM | IC50 [23] 3.69 µM

O=C(Nc1ccc2c(c1)[C@@H]1C[C@@H](CC(=O)N3CCc4ccccc4C3)O[C@@H](CO)[C@@H]1O2)Nc1ccccc1F
inactive: AC50 [24] > 60 µM
